Laboratory results taken from patent US11925624B2, “Methods of administering anti-fibrotic therapy” (GENENTECH, INC., priority 2016, dated 2024).

Tests used:
[1] = Serum creatinine (Scr) change from baseline, SAD study (Part A); type: in vivo, human; settings: for Number of subjects with change in Scr <0.3 mg/dL from baseline / Number of subjects with change in Scr ≥0.3 mg/dL from baseline / Number of subjects with percent change in Scr <30% from baseline / Number of subjects with percent change in Scr ≥30% from baseline: SAD
Method: (§1) In addition to the measurement of various PK parameters in both parts of the study, the changes in the subjects' serum creatinine levels were also evaluated in this study. Tables 6A and 6B summarize the change in level and percent change in serum creatinine from averaged screening and pre-dosing values for the subjects in SAD study in each treatment group, as applicable. Tables 7A and 7B summarize the change in level and percent change in scrum creatinine from averaged screening and pre-dosing values for the subjects in MAD study. […] In Part B of the study, 2 subjects (275 mg BID) experienced clinically significant TEAEs of increased creatinine on day 5. The mean change in serum creatinine from a combined screening and pre-dose baseline in the MAD part of the study is illustrated in FIG. 1. In addition, the mean change in creatinine level from combined screening and pre-dose level in the MAD part of the study is illustrated in FIG. 2.

[2] = Serum creatinine (Scr) change from baseline, MAD study (Part B); type: in vivo, human; settings: for Number of subjects with change in Scr <0.3 mg/dL from baseline / Number of subjects with change in Scr ≥0.3 mg/dL from baseline / Number of subjects with percent change in Scr <30% from baseline / Number of subjects with percent change in Scr ≥30% from baseline: MAD
Method: as §1

## Cn1cc(-c2cn(-c3ccc(OC(F)(F)F)cc3)c(=O)c3ncn(C)c23)cn1 [Compound I]
[1]; Part A (SAD), exposures of doses of 200 mg or more
  Exposures with increases over the upper limit of normal (ULN) in serum creatinine: about 21%
[1]; 25 mg
  Number of subjects with change in Scr <0.3 mg/dL from baseline: 6
  Number of subjects with change in Scr ≥0.3 mg/dL from baseline: 0
  Number of subjects with percent change in Scr <30% from baseline: 6
  Number of subjects with percent change in Scr ≥30% from baseline: 0
[1]; 75 mg
  Number of subjects with change in Scr <0.3 mg/dL from baseline: 6
  Number of subjects with change in Scr ≥0.3 mg/dL from baseline: 0
  Number of subjects with percent change in Scr <30% from baseline: 6
  Number of subjects with percent change in Scr ≥30% from baseline: 0
[1]; 200 mg
  Number of subjects with change in Scr <0.3 mg/dL from baseline: 6
  Number of subjects with change in Scr ≥0.3 mg/dL from baseline: 0
  Number of subjects with percent change in Scr <30% from baseline: 6
  Number of subjects with percent change in Scr ≥30% from baseline: 0
[1]; 400 mg Fasted
  Number of subjects with change in Scr <0.3 mg/dL from baseline: 10
  Number of subjects with change in Scr ≥0.3 mg/dL from baseline: 2
  Number of subjects with percent change in Scr <30% from baseline: 9
  Number of subjects with percent change in Scr ≥30% from baseline: 3
[1]; 800 mg Fasted
  Number of subjects with change in Scr <0.3 mg/dL from baseline: 5
  Number of subjects with change in Scr ≥0.3 mg/dL from baseline: 1
  Number of subjects with percent change in Scr <30% from baseline: 4
  Number of subjects with percent change in Scr ≥30% from baseline: 2
[1]; 1600 mg
  Number of subjects with change in Scr <0.3 mg/dL from baseline: 6
  Number of subjects with change in Scr ≥0.3 mg/dL from baseline: 0
  Number of subjects with percent change in Scr <30% from baseline: 6
  Number of subjects with percent change in Scr ≥30% from baseline: 0
[2]; MAD study, all subjects
  Subjects with mean change from baseline ≥0.3 mg/dL in Scr: 25%
  Subjects with mean percent change from baseline ≥30% in Scr: 50%
[2]; 400 mg (200 mg BID)
  Number of subjects with change in Scr <0.3 mg/dL from baseline: 5
  Number of subjects with change in Scr ≥0.3 mg/dL from baseline: 1
  Number of subjects with percent change in Scr <30% from baseline: 1
  Number of subjects with percent change in Scr ≥30% from baseline: 5
[2]; 525 mg
  Number of subjects with change in Scr <0.3 mg/dL from baseline: 5
  Number of subjects with change in Scr ≥0.3 mg/dL from baseline: 1
  Number of subjects with percent change in Scr <30% from baseline: 3
  Number of subjects with percent change in Scr ≥30% from baseline: 3
[2]; 550 mg (275 mg BID)
  Number of subjects with change in Scr <0.3 mg/dL from baseline: 2
  Number of subjects with change in Scr ≥0.3 mg/dL from baseline: 4
  Number of subjects with percent change in Scr <30% from baseline: 2
  Number of subjects with percent change in Scr ≥30% from baseline: 4
[2]; Part B (MAD), across all dose levels
  Subjects with increases over the upper limit of normal (ULN) in serum creatinine: about 56%
[2]; Part B, 275 mg BID, day 5
  Subjects with clinically significant TEAEs of increased creatinine: 2 subjects
